According to ChEMBL document CHEMBL3758155, “Development of certain new 2-substituted-quinazolin-4-yl-aminobenzenesulfonamide as potential antitumor agents” (Eur J Med Chem, 2016):
Active and inactive are the calls of the source. No cut-off for these calls is given here.

Key:
HT-29 [1] = experiment: Antiproliferative activity against human HT-29 cells assessed as inhibition of cell viability at 10 uM by trypan blue assay; format: functional, cell-based; details: TDE = time-dependent effect
HT-29 [2] = experiment: Inhibition of carbonic anhydrase 12 expression in human HT-29 cells after 18 hrs by Western blot analysis; format: functional, cell-based
HT-29 [3] = experiment: Inhibition of carbonic anhydrase 9 expression in human HT-29 cells after 18 hrs by Western blot analysis; format: functional, cell-based
HT-29 [4] = experiment: Inhibition of carbonic anhydrase 2 expression in human HT-29 cells at 2.5 to 10 uM after 18 hrs by Western blot analysis; format: functional, cell-based
SW-620 = experiment: Antiproliferative activity against human SW620 cells assessed as inhibition of cell viability at 5 to 10 uM after 24 hrs by trypan blue assay; format: functional, cell-based
HT-29 [5] = experiment: Inhibition of carbonic anhydrase 1 expression in human HT-29 cells at 2.5 to 10 uM after 18 hrs by Western blot analysis; format: functional, cell-based
HT-29 [6] = experiment: Antiproliferative activity against human HT-29 cells assessed as cell viability at 10 uM after 24 hrs by trypan blue assay; format: functional; details: HT-29, 24 h, read-out: Activity
HT-29 [7] = experiment: Antiproliferative activity against human HT-29 cells assessed as inhibition of cell viability after 24 hrs by trypan blue assay; format: functional, cell-based

IC50 (HT-29 [7]; HT-29, 24 h): 5.45 µM
Structure (SMILES): NS(=O)(=O)c1ccc(Nc2nc(-c3ccc(Cl)cc3)nc3ccccc23)cc1
inhibition (HT-29 [1]): tde | inhibition (HT-29 [2]): Dose-dependent effect | inhibition (HT-29 [3]): Dose-dependent effect | inhibition (HT-29 [4]): inactive | inhibition (SW-620): Active | inhibition (HT-29 [5]): inactive | viability at 10 µM (HT-29 [6]): 12% | inhibition (HT-29 [7]): Dose-dependent effect
